Experimental data taken from patent US10442807B2, “Aryl substituted bicyclic compounds as herbicides” (FMC Corporation, priority 2015, dated 2019).

Assays:
Assay type in all cases: in vivo
[1] = test system: ryegrass, Italian (Italian ryegrass, Lolium multiflorum); assay: Test A postemergence application, visual injury rating; settings: approx. 10 d, 0 = no effect, 100 = complete control
Summary of the method: (§1)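 In a loam soil and sand blend, either planted seeds got a preemergence directed soil spray or plants at the one- to two-leaf stage (2 to 10 cm tall) were sprayed, using test chemicals in a non-phytotoxic solvent mixture with surfactant. After about 10 d in a greenhouse, injury was visually rated against untreated controls on a 0-100 scale.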

[2] = test system: barnyardgrass (Echinochloa crus-galli); assay: as above; settings: approx. 10 d, 0 = no effect, 100 = complete control
Summary of the method: as §1

kochia (Kochia scoparia) [3] = assay: as above; settings: approx. 10 d, 0 = no effect, 100 = complete control
Summary of the method: as §1

[4] = test system: ragweed (common ragweed, Ambrosia elation); assay: as above; settings: approx. 10 d, 0 = no effect, 100 = complete control
Summary of the method: as §1

[5] = test system: blackgrass (Alopecurus myosuroides); assay: as above; settings: approx. 10 d, 0 = no effect, 100 = complete control
Summary of the method: as §1

[6] = test system: pigweed (Amaranthus retroflexus); assay: as above; settings: approx. 10 d, 0 = no effect, 100 = complete control
Summary of the method: as §1

corn (Zea mays) = assay: as above; settings: approx. 10 d, 0 = no effect, 100 = complete control
Summary of the method: as §1

[7] = test system: galium (catchweed bedstraw, Galium aparine); assay: as above; settings: approx. 10 d, 0 = no effect, 100 = complete control
Summary of the method: as §1

[8] = test system: wheat (Triticum aestivum); assay: as above; settings: approx. 10 d, 0 = no effect, 100 = complete control
Summary of the method: as §1

[9] = test system: foxtail, giant (giant foxtail, Setaria faberii); assay: as above; settings: approx. 10 d, 0 = no effect, 100 = complete control
Summary of the method: as §1

[10] = test system: barnyardgrass (Echinochloa crus-galli); assay: Test B flooded paddy test, visual plant response rating; settings: 250 g ai/ha; applied to paddy water at 2-leaf stage; rated after 13 to 15 days; scale 0 to 100, 0 is no effect, 100 is complete control
Summary of the method: (§2)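 Ratings compare treated with control plants by eye, scored 0 (no effect) to 100 (complete control). Application is into paddy water 3 cm deep over soil, maintained at that level for 13–15 days under greenhouse conditions.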

[11] = test system: ducksalad (Heteranthera limosa); assay: as above; settings: 250 g ai/ha; applied to paddy water at 2-leaf stage; rated after 13 to 15 days; scale 0 to 100, 0 is no effect, 100 is complete control
Summary of the method: as §2

[12] = test system: sedge, umbrella (small-flower umbrella sedge, Cyperus difformis); assay: as above; settings: 250 g ai/ha; applied to paddy water at 2-leaf stage; rated after 13 to 15 days; scale 0 to 100, 0 is no effect, 100 is complete control
Summary of the method: as §2

rice (Oryza sativa) = assay: as above; settings: 250 g ai/ha; applied to paddy water at 2-leaf stage; rated after 13 to 15 days; scale 0 to 100, 0 is no effect, 100 is complete control
Summary of the method: as §2

[13] = test system: ryegrass, Italian (Italian ryegrass, Lolium multiflorum); assay: Test A preemergence, directed soil spray, visual injury rating; settings: approx. 10 d, 0 = no effect, 100 = complete control
Summary of the method: as §1

[14] = test system: barnyardgrass (Echinochloa crus-galli); assay: as above; settings: approx. 10 d, 0 = no effect, 100 = complete control
Summary of the method: as §1

kochia (Kochia scoparia) [15] = assay: as above; settings: approx. 10 d, 0 = no effect, 100 = complete control
Summary of the method: as §1

[16] = test system: ragweed (common ragweed, Ambrosia elation); assay: as above; settings: approx. 10 d, 0 = no effect, 100 = complete control
Summary of the method: as §1

[17] = test system: pigweed (Amaranthus retroflexus); assay: as above; settings: approx. 10 d, 0 = no effect, 100 = complete control
Summary of the method: as §1

[18] = test system: foxtail, giant (giant foxtail, Setaria faberii); assay: as above; settings: approx. 10 d, 0 = no effect, 100 = complete control
Summary of the method: as §1

Row | Structure (SMILES) | Ryegrass, Italian plant response rating (0 to 100 scale) ([1]; 125 g ai/ha) | Ryegrass, Italian plant response rating (0 to 100 scale) ([1]; 500 g ai/ha) | Barnyardgrass plant response rating (0 to 100 scale) ([2]; 125 g ai/ha) | Barnyardgrass plant response rating (0 to 100 scale) ([2]; 500 g ai/ha) | Kochia plant response rating (0 to 100 scale) (kochia (Kochia scoparia) [3]; 125 g ai/ha) | Kochia plant response rating (0 to 100 scale) (kochia (Kochia scoparia) [3]; 500 g ai/ha) | Ragweed plant response rating (0 to 100 scale) ([4]; 125 g ai/ha) | Ragweed plant response rating (0 to 100 scale) ([4]; 500 g ai/ha) | Blackgrass plant response rating (0 to 100 scale) ([5]; 125 g ai/ha) | Blackgrass plant response rating (0 to 100 scale) ([5]; 500 g ai/ha) | Pigweed plant response rating (0 to 100 scale) ([6]; 125 g ai/ha) | Pigweed plant response rating (0 to 100 scale) ([6]; 500 g ai/ha) | Corn plant response rating (0 to 100 scale) (corn (Zea mays); 125 g ai/ha) | Corn plant response rating (0 to 100 scale) (corn (Zea mays); 500 g ai/ha) | Galium plant response rating (0 to 100 scale) ([7]; 125 g ai/ha) | Galium plant response rating (0 to 100 scale) ([7]; 500 g ai/ha) | Wheat plant response rating (0 to 100 scale) ([8]; 125 g ai/ha) | Wheat plant response rating (0 to 100 scale) ([8]; 500 g ai/ha) | Foxtail, Giant plant response rating (0 to 100 scale) ([9]; 125 g ai/ha) | Foxtail, Giant plant response rating (0 to 100 scale) ([9]; 500 g ai/ha) | further results
1 | CSc1ccccc1NC(=O)C1c2nncn2CC1c1ccc(C)c(C)c1 (stereo not drawn) [Compound 18] | 0 | 0 | 0 | 30 | 20 | 20 | 0 | 0 | 0 | 0 | 0 | 0 | 0 | 0 | 20 | 20 | 0 | 0 | 0 | 20 | Plant response rating, Flood, Barnyardgrass [10]: 0; Plant response rating, Flood, Ducksalad [11]: 40; Plant response rating, Flood, Sedge, Umbrella [12]: 0; Plant response rating, Flood, Rice (rice (Oryza sativa)): 0; Ryegrass, Italian plant response rating (0 to 100 scale) ([13]; 125 g ai/ha): 0; Ryegrass, Italian plant response rating (0 to 100 scale) ([13]; 500 g ai/ha): 20; Barnyardgrass plant response rating (0 to 100 scale) ([14]; 125 g ai/ha): 20; Barnyardgrass plant response rating (0 to 100 scale) ([14]; 500 g ai/ha): 60; Kochia plant response rating (0 to 100 scale) (kochia (Kochia scoparia) [15]; 125 g ai/ha): 0; Kochia plant response rating (0 to 100 scale) (kochia (Kochia scoparia) [15]; 500 g ai/ha): 0; Ragweed plant response rating (0 to 100 scale) ([16]; 125 g ai/ha): 0; Ragweed plant response rating (0 to 100 scale) ([16]; 500 g ai/ha): 30; Pigweed plant response rating (0 to 100 scale) ([17]; 125 g ai/ha): 0; Pigweed plant response rating (0 to 100 scale) ([17]; 500 g ai/ha): 0; Foxtail, Giant plant response rating (0 to 100 scale) ([18]; 125 g ai/ha): 0; Foxtail, Giant plant response rating (0 to 100 scale) ([18]; 500 g ai/ha): 80
2 | Cc1ccc(C2Cn3c(C)nnc3C2C(=O)Nc2ccccc2F)cc1 (stereo not drawn) [Compound 27] | 0 | 30 | 40 | 90 | 0 | 0 | 0 | 0 | 0 | 20 | 0 | 0 | 0 | 0 | 0 | 40 | 0 | 0 | 30 | 90 | Plant response rating, Flood, Barnyardgrass [10]: 0; Plant response rating, Flood, Ducksalad [11]: 70; Plant response rating, Flood, Sedge, Umbrella [12]: 0; Plant response rating, Flood, Rice (rice (Oryza sativa)): 0; Ryegrass, Italian plant response rating (0 to 100 scale) ([13]; 125 g ai/ha): 20; Ryegrass, Italian plant response rating (0 to 100 scale) ([13]; 500 g ai/ha): 20; Barnyardgrass plant response rating (0 to 100 scale) ([14]; 125 g ai/ha): 0; Barnyardgrass plant response rating (0 to 100 scale) ([14]; 500 g ai/ha): 90; Kochia plant response rating (0 to 100 scale) (kochia (Kochia scoparia) [15]; 125 g ai/ha): 0; Kochia plant response rating (0 to 100 scale) (kochia (Kochia scoparia) [15]; 500 g ai/ha): 0; Ragweed plant response rating (0 to 100 scale) ([16]; 125 g ai/ha): 0; Ragweed plant response rating (0 to 100 scale) ([16]; 500 g ai/ha): 0; Pigweed plant response rating (0 to 100 scale) ([17]; 125 g ai/ha): 0; Pigweed plant response rating (0 to 100 scale) ([17]; 500 g ai/ha): 0; Foxtail, Giant plant response rating (0 to 100 scale) ([18]; 125 g ai/ha): 80; Foxtail, Giant plant response rating (0 to 100 scale) ([18]; 500 g ai/ha): 90
3 | Cc1nnc2n1CC(c1ccc(Cl)cc1)C2C(=O)Nc1ccccc1F (stereo not drawn) [Compound 21] | 0 | 20 | 0 | 40 | 0 | 0 | 0 | 0 | 0 | 20 | 0 | 0 | 0 | 0 | 0 | 50 | 0 | 0 | 0 | 70 | Plant response rating, Flood, Barnyardgrass [10]: 0; Plant response rating, Flood, Ducksalad [11]: 40; Plant response rating, Flood, Sedge, Umbrella [12]: 0; Plant response rating, Flood, Rice (rice (Oryza sativa)): 0; Ryegrass, Italian plant response rating (0 to 100 scale) ([13]; 125 g ai/ha): 40; Ryegrass, Italian plant response rating (0 to 100 scale) ([13]; 500 g ai/ha): 40; Barnyardgrass plant response rating (0 to 100 scale) ([14]; 125 g ai/ha): 0; Barnyardgrass plant response rating (0 to 100 scale) ([14]; 500 g ai/ha): 40; Kochia plant response rating (0 to 100 scale) (kochia (Kochia scoparia) [15]; 125 g ai/ha): 0; Kochia plant response rating (0 to 100 scale) (kochia (Kochia scoparia) [15]; 500 g ai/ha): 40; Ragweed plant response rating (0 to 100 scale) ([16]; 125 g ai/ha): 0; Ragweed plant response rating (0 to 100 scale) ([16]; 500 g ai/ha): 0; Pigweed plant response rating (0 to 100 scale) ([17]; 125 g ai/ha): 0; Pigweed plant response rating (0 to 100 scale) ([17]; 500 g ai/ha): 0; Foxtail, Giant plant response rating (0 to 100 scale) ([18]; 125 g ai/ha): 0; Foxtail, Giant plant response rating (0 to 100 scale) ([18]; 500 g ai/ha): 70
4 | Cc1ccc(C2Cn3cnnc3C2C(=O)Nc2cccc(F)c2C)cc1C (stereo not drawn) [Compound 26] | 0 | 20 | 50 | 80 | 0 | 0 | 0 | 0 | 0 | 50 | 0 | 0 | 20 | 0 | 30 | 0 | 30 | 0 | 50 | 80 | Plant response rating, Flood, Barnyardgrass [10]: 0; Plant response rating, Flood, Ducksalad [11]: 85; Plant response rating, Flood, Sedge, Umbrella [12]: 0; Plant response rating, Flood, Rice (rice (Oryza sativa)): 20; Ryegrass, Italian plant response rating (0 to 100 scale) ([13]; 125 g ai/ha): 0; Ryegrass, Italian plant response rating (0 to 100 scale) ([13]; 500 g ai/ha): 50; Barnyardgrass plant response rating (0 to 100 scale) ([14]; 125 g ai/ha): 60; Barnyardgrass plant response rating (0 to 100 scale) ([14]; 500 g ai/ha): 90; Kochia plant response rating (0 to 100 scale) (kochia (Kochia scoparia) [15]; 125 g ai/ha): 20; Kochia plant response rating (0 to 100 scale) (kochia (Kochia scoparia) [15]; 500 g ai/ha): 30; Ragweed plant response rating (0 to 100 scale) ([16]; 125 g ai/ha): 0; Ragweed plant response rating (0 to 100 scale) ([16]; 500 g ai/ha): 0; Pigweed plant response rating (0 to 100 scale) ([17]; 125 g ai/ha): 0; Pigweed plant response rating (0 to 100 scale) ([17]; 500 g ai/ha): 0; Foxtail, Giant plant response rating (0 to 100 scale) ([18]; 125 g ai/ha): 80; Foxtail, Giant plant response rating (0 to 100 scale) ([18]; 500 g ai/ha): 90
